The term inhibition denotes the percentage by which the read-out fell short of the control. Usually IC50 stands for the concentration needed to halve the response being measured.

The text below walks through data of ChEMBL document CHEMBL3396964, “SAH derived potent and selective EZH2 inhibitors” (Bioorg Med Chem Lett, 2015).

The target in data set [1] is Histone-lysine N-methyltransferase EZH2 (Homo sapiens) (UniProt Q15910). Kind of data set: Inhibition of EZH2 (unknown origin) at 100 uM by cell-based assay.
For data set [2], the target named is Histone-lysine N-methyltransferase SETDB1 (Homo sapiens, UniProt Q15047). Kind of data set: Inhibition of SETDB1 (unknown origin) by HMT assay.
In data set [3] the target is Histone-lysine N-methyltransferase SUV39H2 (Homo sapiens, UniProt Q9H5I1). Kind of data set: Inhibition of SUV39H2 (unknown origin) by HMT assay.
For data set [4], the target named is Histone-lysine N-methyltransferase 2A (Homo sapiens, UniProt Q03164). Kind of data set: Inhibition of MLL (unknown origin) by HMT assay.
For data set [5], the target named is T1, Histone-lysine N-methyltransferase SUV39H1 (Homo sapiens, UniProt O43463).
T1 sequence (O43463 whole entry): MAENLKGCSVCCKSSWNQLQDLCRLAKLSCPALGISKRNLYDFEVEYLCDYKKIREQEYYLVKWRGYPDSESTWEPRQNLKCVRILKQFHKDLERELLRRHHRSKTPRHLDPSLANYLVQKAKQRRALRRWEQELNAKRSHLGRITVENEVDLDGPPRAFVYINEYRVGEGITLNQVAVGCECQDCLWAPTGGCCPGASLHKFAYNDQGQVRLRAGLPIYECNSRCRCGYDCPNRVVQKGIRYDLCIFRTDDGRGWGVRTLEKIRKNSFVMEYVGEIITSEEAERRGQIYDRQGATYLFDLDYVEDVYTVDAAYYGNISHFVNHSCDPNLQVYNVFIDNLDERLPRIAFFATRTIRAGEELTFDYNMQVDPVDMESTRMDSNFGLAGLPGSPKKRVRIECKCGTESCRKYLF
Kind of data set: Inhibition of SUV39H1 (unknown origin) by HMT assay.

Data set [6] has as its target N-lysine methyltransferase SMYD2 (Homo sapiens, UniProt Q9NRG4). Kind of data set: Inhibition of SMYD2 (unknown origin) by HMT assay.
For data set [7], the target named is T2, Histone-lysine N-methyltransferase EHMT2 (Homo sapiens) (UniProt Q96KQ7).
T2 sequence (whole entry): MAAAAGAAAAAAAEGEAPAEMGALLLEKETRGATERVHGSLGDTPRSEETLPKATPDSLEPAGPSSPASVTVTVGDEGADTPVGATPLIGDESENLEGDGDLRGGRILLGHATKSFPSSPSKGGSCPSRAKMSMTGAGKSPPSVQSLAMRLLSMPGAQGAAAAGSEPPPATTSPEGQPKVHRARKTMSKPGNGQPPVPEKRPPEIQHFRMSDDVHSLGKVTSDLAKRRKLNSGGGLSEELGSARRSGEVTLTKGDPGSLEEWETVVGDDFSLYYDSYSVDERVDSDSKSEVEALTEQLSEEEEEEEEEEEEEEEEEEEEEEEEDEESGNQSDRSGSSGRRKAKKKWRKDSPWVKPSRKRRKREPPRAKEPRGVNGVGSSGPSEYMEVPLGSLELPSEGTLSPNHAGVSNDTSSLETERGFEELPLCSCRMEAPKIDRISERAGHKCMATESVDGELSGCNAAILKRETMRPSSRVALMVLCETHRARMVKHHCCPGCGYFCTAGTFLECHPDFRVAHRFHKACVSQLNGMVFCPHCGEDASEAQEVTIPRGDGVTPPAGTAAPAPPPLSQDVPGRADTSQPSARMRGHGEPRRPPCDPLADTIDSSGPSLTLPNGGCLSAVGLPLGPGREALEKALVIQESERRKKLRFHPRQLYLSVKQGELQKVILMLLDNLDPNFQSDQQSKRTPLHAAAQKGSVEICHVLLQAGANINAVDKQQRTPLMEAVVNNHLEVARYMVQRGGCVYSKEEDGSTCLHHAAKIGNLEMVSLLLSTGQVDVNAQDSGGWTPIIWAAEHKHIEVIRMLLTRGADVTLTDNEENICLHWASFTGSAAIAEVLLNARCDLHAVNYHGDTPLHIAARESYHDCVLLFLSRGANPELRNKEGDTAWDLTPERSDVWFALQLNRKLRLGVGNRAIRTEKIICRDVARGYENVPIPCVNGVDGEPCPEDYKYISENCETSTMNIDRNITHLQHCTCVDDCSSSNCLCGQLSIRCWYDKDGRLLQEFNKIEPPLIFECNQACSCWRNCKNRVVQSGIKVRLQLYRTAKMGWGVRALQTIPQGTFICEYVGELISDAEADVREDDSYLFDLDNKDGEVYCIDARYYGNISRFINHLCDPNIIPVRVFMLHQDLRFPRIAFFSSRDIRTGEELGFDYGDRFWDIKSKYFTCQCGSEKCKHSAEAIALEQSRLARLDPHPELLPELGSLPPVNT
The experiment in a line: Inhibition of G9a (unknown origin) at 10 uM by HMT assay.

Data set [8] is described as follows: Permeability across MDCK2 cells. The settings on record: dog, MDCK; read-out: permeability. It counts as ADME, cell-based, Canis lupus familiaris, MDCK-II.
The target in data set [9] is Histone-lysine N-methyltransferase KMT5C (Homo sapiens, UniProt Q86Y97). Kind of data set: Inhibition of SUV420H2 (unknown origin) by HMT assay.
In data set [10] the target is Histone-lysine N-methyltransferase EZH2 (Homo sapiens, UniProt O75530+Q09028+Q15022+Q15910). The experiment in a line: Inhibition of N-terminally FLAG-tagged wild type EZH2 in EZH2/SUZ12/EED/RbAp48 complex (unknown origin) expressed in baculovirus infected in SF9 cells assessed as inhibition of methylation of nucleosomes at H3K27 by scintillation counting in presence of [3H]SAM.

Calls of active or inactive are those of the source. The calls are words filed in the database; no cut-off is given here.

Chain of Histone-lysine N-methyltransferase KMT5C (Q86Y97 whole entry): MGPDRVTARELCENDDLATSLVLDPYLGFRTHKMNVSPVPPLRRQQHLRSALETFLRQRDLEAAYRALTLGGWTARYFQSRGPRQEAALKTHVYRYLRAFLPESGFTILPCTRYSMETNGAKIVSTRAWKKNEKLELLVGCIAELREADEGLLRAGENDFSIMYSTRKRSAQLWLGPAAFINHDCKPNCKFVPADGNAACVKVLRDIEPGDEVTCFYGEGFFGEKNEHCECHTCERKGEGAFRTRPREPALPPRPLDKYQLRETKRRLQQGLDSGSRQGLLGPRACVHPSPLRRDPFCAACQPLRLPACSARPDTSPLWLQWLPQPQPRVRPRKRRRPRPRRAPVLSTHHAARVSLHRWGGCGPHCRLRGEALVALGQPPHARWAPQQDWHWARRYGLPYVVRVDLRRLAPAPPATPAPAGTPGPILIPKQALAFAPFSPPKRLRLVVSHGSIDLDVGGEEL
Chain of Histone-lysine N-methyltransferase EZH2 (Homo sapiens) (Q15910 whole entry, looked up): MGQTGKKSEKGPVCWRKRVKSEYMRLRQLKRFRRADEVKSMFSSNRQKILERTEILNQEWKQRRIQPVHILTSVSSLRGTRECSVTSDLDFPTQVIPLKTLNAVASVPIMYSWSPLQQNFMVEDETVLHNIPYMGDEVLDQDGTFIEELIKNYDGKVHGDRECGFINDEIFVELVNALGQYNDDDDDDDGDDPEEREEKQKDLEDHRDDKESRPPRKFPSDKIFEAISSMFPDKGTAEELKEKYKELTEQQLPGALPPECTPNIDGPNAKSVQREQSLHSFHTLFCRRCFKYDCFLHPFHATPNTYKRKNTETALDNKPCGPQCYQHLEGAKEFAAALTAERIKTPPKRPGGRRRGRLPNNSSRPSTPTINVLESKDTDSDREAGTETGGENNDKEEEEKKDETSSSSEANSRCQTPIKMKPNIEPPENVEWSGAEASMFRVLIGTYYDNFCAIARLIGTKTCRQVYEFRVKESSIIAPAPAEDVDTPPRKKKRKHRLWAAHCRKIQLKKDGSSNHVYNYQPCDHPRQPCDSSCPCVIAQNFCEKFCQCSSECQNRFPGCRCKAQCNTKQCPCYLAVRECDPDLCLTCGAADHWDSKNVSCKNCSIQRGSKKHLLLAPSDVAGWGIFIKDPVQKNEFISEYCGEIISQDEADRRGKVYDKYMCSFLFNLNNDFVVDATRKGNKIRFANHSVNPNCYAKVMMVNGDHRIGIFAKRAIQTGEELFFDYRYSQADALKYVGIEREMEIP
Chain of Histone-lysine N-methyltransferase EZH2 (Q15910 whole entry, one chain of several): as the sequence (Q15910 whole entry, looked up) above
Chain of Histone-lysine N-methyltransferase SUV39H2 (Q9H5I1 whole entry): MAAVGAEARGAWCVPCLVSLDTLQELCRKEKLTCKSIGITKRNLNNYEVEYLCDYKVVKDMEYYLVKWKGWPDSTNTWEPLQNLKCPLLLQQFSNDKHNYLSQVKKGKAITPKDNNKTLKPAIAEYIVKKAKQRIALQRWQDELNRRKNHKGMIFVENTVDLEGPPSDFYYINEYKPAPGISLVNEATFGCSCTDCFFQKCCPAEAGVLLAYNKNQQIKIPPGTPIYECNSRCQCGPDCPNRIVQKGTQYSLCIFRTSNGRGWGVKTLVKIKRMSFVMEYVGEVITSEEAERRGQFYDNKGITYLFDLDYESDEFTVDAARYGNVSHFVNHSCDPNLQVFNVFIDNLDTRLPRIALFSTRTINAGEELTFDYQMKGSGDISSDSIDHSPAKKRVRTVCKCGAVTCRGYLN
Chain of N-lysine methyltransferase SMYD2 (Q9NRG4 whole entry): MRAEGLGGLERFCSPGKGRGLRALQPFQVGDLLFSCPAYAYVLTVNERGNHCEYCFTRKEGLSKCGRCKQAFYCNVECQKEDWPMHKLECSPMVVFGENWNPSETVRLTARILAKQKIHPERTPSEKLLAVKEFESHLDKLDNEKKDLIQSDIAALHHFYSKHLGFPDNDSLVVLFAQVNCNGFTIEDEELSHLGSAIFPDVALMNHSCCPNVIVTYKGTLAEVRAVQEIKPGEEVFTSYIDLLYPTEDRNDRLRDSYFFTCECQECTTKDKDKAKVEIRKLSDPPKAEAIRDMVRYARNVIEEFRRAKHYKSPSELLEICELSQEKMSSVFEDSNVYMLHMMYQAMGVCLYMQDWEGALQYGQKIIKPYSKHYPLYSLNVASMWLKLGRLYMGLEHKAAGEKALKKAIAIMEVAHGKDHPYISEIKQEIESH

As for `Nc1ncnc2c1ncn2[C@@H]1O[C@H](CSCC[C@H](N)C(=O)NCc2cc(-c3ccccc3)[nH]n2)[C@@H](O)[C@H]1O`, the inhibition result in data set [1] was “inactive”. Also, the IC50 was above 100 µM in [2]; above 100 µM in data set [3]; 18.5 µM in data set [4]; 9.5 µM in data set [5]; above 100 µM in data set [6]; above 100 µM in data set [9]. The half-maximal inhibitory concentration (IC50) in data set [10] was 270 nM. In data set [7], this compound returned an inhibition of 20%. In data set [8], the Papp amounted to 1 ×10⁻⁶ cm/s.
